Data published in patent US20090048301A1 (IMCLONE SYSTEMS INCORPORATED, priority 2003, published 2009).

System: bovine tubulin
Assay: In vitro tubulin polymerization assay (turbidity at 340 nm)
Format: biochemical
Details: 10 μM compound, 30 minute data point, vs 1% DMSO control
Protocol: Briefly, tubulin polymerization is a kinetic process that is temperature-dependent and requires GTP and was performed as follows. Soluble tubulin dimers polymerize into microtubules upon warming, and polymerization in vitro correlates with an increase in turbidity (measured at 340 nm). Lyophilized bovine tubulin (HTS Tubulin—97% tubulin, <3% MAPs—Cytoskeleton Inc.) was ressuspended in G-PEM buffer (80 mM PIPES pH 7, 1 mM EGTA, 1 mM MgCl2, 1 mM GTP, 5% glycerol) to a final concentration of 3 mg/ml and kept at 4° C. Compounds in 100× stock solutions in DMSO were dotted to pre-warmed 96-well plates (Corning Costar 3696), the plates were transferred to a 37° C. plate reader (SPECTRAmax Plus, Molecular Devices), cold tubulin was added to the wells, and the plates were shaken for mixing. The absorbance at 340 nm was determined at one minute intervals for 30 minutes. Kinetic curves with 30 points each were collected for each compound, and the dynamic range was between 0 and 0.4 OD units. The percentage inhibition values were calculated using the 30 minute data point and based on control samples (treated with 1% DMSO only). The assay is a modified version of the HTS kit sold by Cytoskeleton (1830 S. Acoma St., Denver, Colo.), adapted to maximize throughput and reduce time, without reduction in dynamic range or sensitivity, while retaining the ability to detect compounds that inhibit or enhance tubulin polymerization.
Tubulin polymerization is a kinetic process that is temperature-dependent and requires GTP. Soluble tubulin dimers polymerize into microtubules upon warming, and polymerization in vitro correlates with an increase in turbidity (measured at 340 nm). Liophilized bovine tubulin (HTS Tubulin—97% tubulin, <3% MAPs—Cytoskeleton Inc.) was ressuspended in G-PEM buffer (80 mM PIPES pH 7, 1 mM EGTA, 1 mM MgCl2, 1 mM GTP, 5% glycerol) to a final concentration of 3 mg/ml and kept at 4° C. Compounds in 100× stock solutions in DMSO were dotted to pre-warmed 96-well plates (Corning Costar 3696), the plates were immediately transferred to a 37° C. plate reader (SPECTRAmax Plus, Molecular Devices), cold tubulin was added to the wells, plates were shaken for mixing, and absorbance at 340 nm was read every minute for 30 minutes. Kinetic curves with 30 points each were collected for each compound, and the dynamic range was between 0 and 0.4 OD units. Percentage inhibition values were calculated using the 30 minute data point, based on control samples (treated with 1% DMSO only). This assay is a modified version of the HTS kit sold by Cytoskeleton, adapted to maximize throughput and reduce time, without reduction in dynamic range or sensitivity, while retaining the ability to detect compounds that inhibit or enhance tubulin polymerization.

SMILES	Tubulin Assay: percent inhibition at 10 μM based on 30 minute data [%]
COc1cccc(-c2nnc(-c3cccnc3NCc3ccncc3)[nH]2)c1 [Compound 94, {3-[5-(3-Methoxy-phenyl)-4H-[1,2,4]triazol-3-yl]-pyridin-2-yl}-pyridin-4-ylmethyl-amine]	43
Fc1ccc(CNc2ccccc2-c2cnc(Nc3ccc4c(c3)OCCO4)o2)cc1F [Compound 247, {5-[2-(3,4-Difluoro-benzylamino)-phenyl]-oxazol-2-yl}-(2,3-dihydro-benzo[1,4]dioxin-6-yl)-amine]	94
c1ccc(-c2cnc(Nc3ccc4c(c3)OCCO4)o2)c(OCc2ccncc2)c1 [Compound 253, (2,3-Dihydro-benzo[1,4]dioxin-6-yl)-{5-[2-(pyridin-4-ylmethoxy)-phenyl]-oxazol-2-yl}-amine]	44
COc1cc(CNc2ccccc2-c2nnc(-c3cccc(Br)c3)[nH]2)cc(OC)c1 [Compound 151, {2-[5-(3-Bromo-phenyl)-4H-[1,2,4]triazol-3-yl]-phenyl}-(3,5-dimethoxy-benzyl)-amine]	42
COc1cc(CNc2cc(C(F)(F)F)ccc2-c2nnc(Nc3ccc4c(c3)OCO4)[nH]2)cc(OC)c1 [Compound 126, Benzo[1,3]dioxol-5-yl-{5-[2-(3,5-dimethoxy-benzylamino)-4-trifluoromethyl-phenyl]-4H-[1,2,4]triazol-3-yl}-amine]	93
COc1cccc(Nc2nnc(-c3cccnc3NCC3COCCO3)[nH]2)c1 (stereo not drawn) [Compound 46, [1,4]Dioxan-2-ylmethyl-{3-[5-(3-methoxy-phenylamino)-4H-[1,2,4]triazol-3-yl]-pyridin-2-yl}-amine]	25
O=C1CCCN1CCCNc1ncccc1-c1nnc(Nc2ccc3c(c2)OCCO3)[nH]1 [Compound 48, 1-(3-{3-[5-(2,3-Dihydro-benzo[1,4]dioxin-6-ylamino)-4H-[1,2,4]thiazol-3-yl]-pyridin-2-ylamino}-propyl)-pyrrolidin-2-one]	21
Nc1ccccc1-c1nnc(Nc2ccc3c(c2)OCCO3)[nH]1 [Compound 127b, [5-(2-amino-phenyl)-4H-[1,2,4]triazol-3-yl]-(2,3-dihydro-benzo[1,4]dioxin-6-yl)-amine]	20
COc1ccc(Nc2nnc(-c3cccnc3Nc3ccc4cn[nH]c4c3)[nH]2)c(OC)c1 [Compound 22, {3-[5-(2,4-Dimethoxy-phenylamino)-4H-[1,2,4]triazol-3-yl]-pyridin-2-yl}-(1H-indazol-6-yl)-amine]	24
N#Cc1ccc(S(=O)(=O)Nc2ccccc2-c2nnc(Nc3ccc4c(c3)OCCO4)[nH]2)cc1 [Compound 128, 4-Cyano-N-{2-[5-(2,3-dihydro-benzo[1,4]dioxin-6-ylamino)-4H-[1,2,4]triazol-3-yl]-phenyl}-benzenesulfonamide]	42
c1cnc(NCc2ccc3c(c2)CCO3)c(-c2nnc(Nc3ccc4c(c3)OCO4)[nH]2)c1 [Compound 36, {3-[5-(Benzo[1,3]dioxol-5-ylamino)-4H-[1,2,4]triazol-3-yl]-pyridin-2-yl}-(2,3-dihydro-benzofuran-5-ylmethyl)-amine]	67
c1ccc(-c2nnc(Nc3ccc4c(c3)OCCO4)o2)c(NCc2cnccn2)c1 [Compound 221]	80
CS(=O)(=O)c1ccc(-c2nnc(-c3cccnc3NCCc3c[nH]cn3)[nH]2)cc1 [Compound 91, [2-(1H-Imidazol-4-yl)-ethyl]-{3-[5-(4-methanesulfonyl-phenyl)-4H-[1,2,4]triazol-3-yl]-pyridin-2-yl}-amine]	29
COc1cc(Nc2nnc(-c3ccccc3NCc3ccc(F)c(F)c3)[nH]2)cc(OC)c1 [Compound 120, {5-[2-(3,4-Difluoro-benzylamino)-phenyl]-4H-[1,2,4]triazol-3-yl}-(3,5-dimethoxy-phenyl)-amine]	63
FC(F)(F)c1cccc(-c2nnc(-c3ccccc3NCc3ccc4c(c3)OCCO4)[nH]2)c1 [Compound 150, (2,3-Dihydro-benzo[1,4]dioxin-6-ylmethyl)-{2-[5-(3-trifluoromethyl-phenyl)-4H-[1,2,4]triazol-3-yl]-phenyl}-amine]	24
COc1cccc(Nc2nc(-c3cccnc3Nc3cc(OC)cc(OC)c3)nn2C)c1 [Compound 66, (3,5-Dimethoxy-phenyl)-{3-[5-(3-methoxy-phenylamino)-1-methyl-1H-[1,2,4]triazol-3-yl]-pyridin-2-yl}-amine]	73
COc1cccc(-c2nnc(-c3ccccc3NCc3ccc4[nH]cnc4c3)[nH]2)c1 [Compound 137, (1H-Benzoimidazol-5-ylmethyl)-{2-[5-(3-methoxy-phenyl)-4H-[1,2,4]triazol-3-yl]-phenyl}-amine]	28
COc1cc(Nc2ncccc2-c2nnc(Nc3cccc(NS(=O)(=O)c4ccc5c(c4)OCCO5)c3)[nH]2)cc(OC)c1 [Compound 64, 2,3-Dihydro-benzo[1,4]dioxine-6-sulfonic acid (3-{5-[2-(3,5-dimethoxy-phenylamino)-pyridin-3-yl]-4H-[1,2,4]triazol-3-ylamino}-phenyl)-amide]	29
CN(C)c1ccc(Nc2nnc(-c3ccccc3NCc3ccc(F)c(F)c3)[nH]2)cc1 [Compound 121, {5-[2-(3,4-Difluoro-benzylamino)-phenyl]-4H-[1,2,4]triazol-3-yl}-(4-dimethylamino-phenyl)-amine]	23
COc1cc(Nc2ncccc2-c2nc(Nc3ccc4c(c3)OCO4)n(C)n2)cc(OC)c1 [Compound 65, {3-[5-(Benzo[1,3]dioxol-5-ylamino)-1-methyl-1H-[1,2,4]triazol-3-yl]-pyridin-2-yl}-(3,5-dimethoxy-phenyl)-amine]	77
CN(C)c1ccc(-c2nnc(Nc3ccc4c(c3)OCCO4)o2)c(NCc2ccncc2)c1 [Compound 231]	28
FC(F)(F)c1ccc(-c2nnc(Nc3ccc4c(c3)OCO4)[nH]2)c(NCc2cccnc2)c1 [Compound 125, Benzo[1,3]dioxol-5-yl-(5-{2-[(pyridin-3-ylmethyl)-amino]-4-trifluoromethyl-phenyl}-4H-[1,2,4]triazol-3-yl)-amine]	96
c1cnc(NCC2COCCO2)c(-c2nnc(Nc3ccc4c(c3)OCCO4)[nH]2)c1 (stereo not drawn) [Compound 55, {3-[5-(2,3-Dihydro-benzo[1,4]dioxin-6-ylamino)-4H-[1,2,4]triazol-3-yl]-pyridin-2-yl}-[1,4]dioxan-2-ylmethyl-amine]	23
COc1cc(CNc2ccccc2-c2nnc(-c3cccc(OC)c3)[nH]2)cc(OC)c1 [Compound 135, (3,5-Dimethoxy-benzyl)-{2-[5-(3-methoxy-phenyl)-4H-[1,2,4]triazol-3-yl]-phenyl}-amine]	23
c1cnc(NCc2ccc3c(c2)OCCO3)c(-c2nnc(Nc3ccc4c(c3)OCO4)[nH]2)c1 [Compound 34, {3-[5-(Benzo[1,3]dioxol-5-ylamino)-4H-[1,2,4]triazol-3-yl]-pyridin-2-yl}-(2,3-dihydro-benzo[1,4]dioxin-6-ylmethyl)-amine]	69
COc1ccc(S(=O)(=O)Nc2ccccc2-c2nnc(Nc3ccc4c(c3)OCO4)o2)cc1OC [Compound 238, N-{2-[5-(Benzo[1,3]dioxol-5-ylamino)-[1,3,4]oxadiazol-2-yl]-phenyl}-3,4-dimethoxy-benzenesulfonamide]	65
COc1cc(Nc2ncccc2-c2nnc(N)o2)cc(OC)c1 [Compound 243a, [3-(5-Amino-[1,3,4]oxadiazol-2-yl)-pyridin-2-yl]-(3,5-dimethoxy-phenyl)-amine]	46
